Measurements published in ChEMBL document CHEMBL1201862, “PubChem BioAssay data set” (2004).
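Five concentrations, 48 hours, 96-well plates. GI50 is the concentration that inhibits growth by half.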 Active and inactive are the calls of the source. Rule as the data show it: active = GI50 up to about 1.1 µM and inactive = higher.

Columns and labels:
Assay in all cases: DTP human tumour cell line panel, 48 h
UACC-257 = test system: UACC-257
NCI-H522 = test system: NCI-H522
NCI-H460 = test system: NCI-H460
UACC-62 = test system: UACC-62
EKVX = test system: EKVX
UO-31 = test system: UO-31
Malme-3M = test system: Malme-3M
RXF 393 = test system: RXF 393
SNB-19 = test system: SNB-19
CAKI-1 = test system: CAKI-1
IGROV-1 = test system: IGROV-1
SN12C = test system: SN12C
MDA-N = test system: MDA-N
HCT-116 = test system: HCT-116
SK-MEL-2 = test system: SK-MEL-2
MDA-MB-435 = test system: MDA-MB-435
OVCAR-4 = test system: OVCAR-4
SW-620 = test system: SW-620
KM12 = test system: KM12
SR = test system: SR
OVCAR-8 = test system: OVCAR-8
COLO 205 = test system: COLO 205
HCC 2998 = test system: HCC 2998
A498 = test system: A498
SK-OV-3 = test system: SK-OV-3
SF-268 = test system: SF-268
MDA-MB-231 = test system: MDA-MB-231
K562 = test system: K562
MCF7 = test system: MCF7
786-0 = test system: 786-0
NCI/ADR-RES = test system: NCI/ADR-RES
HCT-15 = test system: HCT-15
A549 = test system: A549
OVCAR-5 = test system: OVCAR-5
ACHN = test system: ACHN
BT-549 = test system: BT-549
TK-10 = test system: TK-10
SF-295 = test system: SF-295
PC-3 = test system: PC-3
Hs-578T = test system: Hs-578T
T47D = test system: T47D
OVCAR-3 = test system: OVCAR-3
NCI-H226 = test system: NCI-H226
SK-MEL-5 = test system: SK-MEL-5
DU-145 = test system: DU-145
RPMI-8226 = test system: RPMI-8226
SF-539 = test system: SF-539
HT-29 = test system: HT-29
U-251 = test system: U-251
HOP-92 = test system: HOP-92
MOLT-4 = test system: MOLT-4
NCI-H23 = test system: NCI-H23
LOX IMVI = test system: LOX IMVI
HOP-62 = test system: HOP-62
CCRF-CEM = test system: CCRF-CEM
SK-MEL-28 = test system: SK-MEL-28
M14 = test system: M14
SNB-75 = test system: SNB-75
HL-60 = test system: HL-60

Measured: GI50

O=c1[nH]nc(-c2ccccc2)n1/N=C/c1ccccc1O
> 100 µM: HCT-15
inactive: UACC-257 > 100 µM | NCI-H522 42.7 µM | NCI-H460 > 100 µM | UACC-62 81.1 µM | EKVX 67.9 µM | UO-31 > 100 µM | Malme-3M 88.1 µM | RXF 393 29.7 µM | SNB-19 35.5 µM | CAKI-1 > 100 µM | IGROV-1 53 µM | SN12C > 100 µM | MDA-N > 100 µM | HCT-116 33.4 µM | SK-MEL-2 > 100 µM | MDA-MB-435 > 100 µM | OVCAR-4 28.6 µM | SW-620 > 100 µM | KM12 47 µM | SR > 100 µM | OVCAR-8 47.6 µM | COLO 205 > 100 µM | HCC 2998 > 100 µM | A498 34.1 µM | SK-OV-3 22.9 µM | SF-268 80.2 µM | MDA-MB-231 70 µM | K562 > 100 µM | MCF7 > 100 µM | 786-0 29.2 µM | NCI/ADR-RES > 100 µM | A549 > 100 µM | OVCAR-5 > 100 µM | ACHN 63.2 µM | BT-549 > 100 µM | TK-10 > 100 µM | SF-295 71 µM | PC-3 89.9 µM | Hs-578T 29.3 µM | T47D > 100 µM | OVCAR-3 59.4 µM | NCI-H226 > 100 µM | SK-MEL-5 47.8 µM | DU-145 > 100 µM | RPMI-8226 > 100 µM | SF-539 78.2 µM | HT-29 > 100 µM | U-251 41.6 µM | HOP-92 67.3 µM | MOLT-4 > 100 µM | NCI-H23 > 100 µM | LOX IMVI > 100 µM

COc1ccc2[nH]c3c(c2c1)CCc1ccccc1-3
inactive: UACC-257 > 100 µM | NCI-H522 26.7 µM | NCI-H460 30.8 µM | UACC-62 > 100 µM | EKVX 17.6 µM | UO-31 70.1 µM | Malme-3M 39.2 µM | SNB-19 81.3 µM | CAKI-1 > 100 µM | IGROV-1 19.8 µM | SN12C > 100 µM | MDA-N > 100 µM | HCT-116 > 100 µM | SK-MEL-2 > 100 µM | MDA-MB-435 > 100 µM | OVCAR-4 37.6 µM | SW-620 > 100 µM | KM12 32.4 µM | SR 84.9 µM | OVCAR-8 27.7 µM | COLO 205 > 100 µM | HCC 2998 64.3 µM | SK-OV-3 40.9 µM | HOP-62 35.2 µM | SF-268 38.7 µM | MDA-MB-231 20.2 µM | K562 > 100 µM | MCF7 79.3 µM | 786-0 50.7 µM | NCI/ADR-RES 40.4 µM | CCRF-CEM > 100 µM | A549 > 100 µM | OVCAR-5 > 100 µM | ACHN > 100 µM | BT-549 > 100 µM | TK-10 > 100 µM | SF-295 32.8 µM | PC-3 52.8 µM | Hs-578T 17.4 µM | T47D > 100 µM | SK-MEL-28 > 100 µM | OVCAR-3 > 100 µM | NCI-H226 > 100 µM | SK-MEL-5 > 100 µM | M14 > 100 µM | DU-145 > 100 µM | SF-539 16.7 µM | HT-29 > 100 µM | U-251 30.3 µM | HOP-92 51.2 µM | MOLT-4 80.9 µM | SNB-75 26.1 µM | NCI-H23 41.7 µM | LOX IMVI 78.9 µM
70.5 µM: HCT-15

O=c1c(C(c2ccc(OCc3ccccc3)cc2)c2c(O)oc3ccccc3c2=O)c(O)oc2ccccc12
41.7 µM: HCT-15
inactive: UACC-257 78.9 µM | NCI-H522 27.2 µM | NCI-H460 35 µM | UACC-62 37.5 µM | EKVX 39 µM | UO-31 19 µM | Malme-3M 28.6 µM | RXF 393 > 100 µM | SNB-19 40.6 µM | CAKI-1 27.2 µM | IGROV-1 77.4 µM | SN12C 30.4 µM | MDA-N 24.7 µM | HL-60 32.8 µM | HCT-116 36.8 µM | SK-MEL-2 61.1 µM | MDA-MB-435 41.9 µM | OVCAR-4 46.1 µM | SW-620 57.4 µM | KM12 29.6 µM | OVCAR-8 33.4 µM | COLO 205 46 µM | HCC 2998 35.1 µM | A498 83.2 µM | SK-OV-3 50.5 µM | HOP-62 47.5 µM | SF-268 29.4 µM | MDA-MB-231 27 µM | K562 10 µM | MCF7 48.4 µM | 786-0 38.2 µM | NCI/ADR-RES 34.2 µM | CCRF-CEM 38.2 µM | A549 40.9 µM | OVCAR-5 75.2 µM | ACHN 23.4 µM | BT-549 24.9 µM | TK-10 62.1 µM | SF-295 61.2 µM | PC-3 39.7 µM | Hs-578T 34.3 µM | T47D 81.1 µM | SK-MEL-28 78 µM | OVCAR-3 63.8 µM | NCI-H226 30.7 µM | SK-MEL-5 29.6 µM | M14 48.1 µM | DU-145 67.6 µM | RPMI-8226 43.1 µM | SF-539 39.6 µM | HT-29 33 µM | U-251 39.5 µM | HOP-92 36.2 µM | MOLT-4 37.3 µM | SNB-75 18.6 µM | NCI-H23 35.7 µM | LOX IMVI 34.2 µM
